Measured values as given in ChEMBL document CHEMBL5143528, “Heat shock protein 90 (Hsp90)/Histone deacetylase (HDAC) dual inhibitors for the treatment of azoles-resistant Candida albicans” (Eur J Med Chem, 2022).
Calls of active or inactive are those of the source. The rule behind the calls is not given here.

Experiments:
Candida albicans [1] = type: functional, 0304103; conditions: time 48 hrs
Description: Synergistic antifungal activity against azole-resistant Candida albicans 0304103 assessed as fractional inhibitory concentration in presence of fluconazole incubated for 48 hrs by CLSI based checkerboard microdilution assay

A549 = assay: Cytotoxicity against human A549 cells assessed as inhibition of cell growth; type: functional, cell-based
Candida albicans [2] = assay: microbe, parasite or virus in culture; type: functional; conditions: 0304103, time 48 hrs
Description: Antifungal activity against azole-resistant Candida albicans 0304103 assessed as fungal growth inhibition incubated for 48 hrs by CLSI based checkerboard microdilution assay

Candida albicans [3] = type: functional, 0304103; conditions: time 48 hrs; remark: listed apart in the source
Description: Synergistic antifungal activity against azole-resistant Candida albicans 0304103 assessed as fractional inhibitory concentration incubated for 48 hrs by CLSI based checkerboard microdilution assay

Candida albicans [4] = type: functional, 0304103; conditions: time 48 hrs; remark: listed apart in the source
Description: Synergistic antifungal activity against azole-resistant Candida albicans 0304103 assessed as fractional inhibitory concentration index in presence of fluconazole incubated for 48 hrs by CLSI based checkerboard microdilution assay

HEL = assay: Cytotoxicity against human HEL cells assessed as inhibition of cell growth; type: functional, cell-based
[5] = Cytotoxicity against human HaCaT cells assessed as inhibition of cell growth; type: toxicity, cell-based
Candida albicans [6] = assay: Upregulation of ERG11 expression in azole-resistant Candida albicans 0304103 at 8 ug/ml by RT-PCR analysis; type: functional; conditions: dose 8.0 µg/ml
[7] = Inhibition of fungal HDAC using Boc-Lys (acetyl)-AMC as substrate preincubated for 12 hrs followed by substrate addition and measured after 6 hrs by fluorescence-based analysis; design: species or system Fungi
[8] = Toxicity in ICR mouse infected with azole-resistant Candida albicans 0304103 assessed as reduction in survival time at 10 mg/kg, ip administered once daily for 5 days; type: organism-based; conditions: in vivo, 120 h, time 5 day
[9] = Inhibition of fungal HSP90 incubated for 6 hrs in presence of FITC-Geldanamycin by fluorescence polarization analysis; design: species or system Fungi
Candida albicans [10] = assay: Inhibition of biofilm formation in azole-resistant Candida albicans 0304103 assessed as downregulation of […] expression at 64 ug/ml by RT-PCR analysis; type: functional, organism-based; conditions: dose 64.0 µg/ml
Candida albicans [11] = assay: Inhibition of biofilm formation in azole-resistant Candida albicans 0304103 at 64 ug/ml incubated for 24 hrs by XTT reduction assay; type: functional, organism-based; conditions: dose 64.0 µg/ml
Candida albicans [12] = assay: Inhibition of biofilm formation in azole-resistant Candida albicans 0304103 assessed as downregulation of HWP1 expression at 64 ug/ml by RT-PCR analysis; type: functional, organism-based; conditions: dose 64.0 µg/ml
Candida albicans [13] = assay: Inhibition of biofilm formation in azole-resistant Candida albicans 0304103 assessed as downregulation of EAP1 expression at 64 ug/ml by RT-PCR analysis; type: functional, organism-based; conditions: dose 64.0 µg/ml
Candida albicans [14] = assay: Inhibition of biofilm formation in azole-resistant Candida albicans 0304103 assessed as downregulation of BCR1 expression at 64 ug/ml by RT-PCR analysis; type: functional, organism-based; conditions: dose 64.0 µg/ml
Candida albicans [15] = assay: Antifungal activity against azole-resistant Candida albicans 0304103 infected in ICR mouse assessed as reduction in fungal burden in kidney at 10 mg/kg, ip administered once daily for 5 days in presence of fluconazole; type: functional, organism-based; conditions: time 5.0 day
Heat shock protein HSP90 = Heat shock protein HSP90 (Homo sapiens, UniProt P07900+P08238); assay: Inhibition of human HSP90; type: protein assay
Candida albicans [16] = assay: (§1) Antifungal activity against azole-resistant Candida albicans 0304103 infected in ICR mouse assessed as reduction in fungal burden in kidney by measuring smooth kidney tissue at 10 mg/kg, ip administered once daily for 5 days in presence of fluconazole by Periodic acid-Schiff staining based analysis; type: functional, organism-based; conditions: time 5.0 day
Histone deacetylase = type: protein assay, Homo sapiens
Candida albicans [17] = assay: as §1, with “neat and dense arrangement of cells” for “smooth kidney tissue”; type: functional, organism-based; conditions: time 5.0 day
Candida albicans [18] = assay: Downregulation of CDR1 expression in azole-resistant Candida albicans 0304103 at 8 ug/ml in presence of fluconazole by RT-PCR analysis; type: functional; conditions: dose 8.0 µg/ml
Candida albicans [19] = assay: as §1, with “assessed as assessed as reduction in” for “assessed as reduction in”, “by measuring reduction in fungal invasion at 10” for “by measuring smooth kidney tissue at 10”; type: functional, organism-based; conditions: time 5.0 day
Candida albicans [20] = assay: Downregulation of ERG11 expression in azole-resistant Candida albicans 0304103 at 8 ug/ml in presence of fluconazole by RT-PCR analysis; type: functional; conditions: dose 8.0 µg/ml

SMILES	FIC (Candida albicans [1]) [µg/mL]	IC50 (A549) [µM]	MIC80 (Candida albicans [2]) [µg/mL]	FIC (Candida albicans [3]) [µg/mL]	fractional inhibitory concentration index (FICI) (Candida albicans [4])	IC50 (HEL) [µM]	also measured
CNC(=O)CCCCCCCNC(=O)c1cccc(-n2c(-c3cc(C(C)C)c(O)cc3O)n[nH]c2=O)c1	2	4.6	> 64	8	0.156	4.6	IC50 [5]: > 6.13 µM
OC(Cn1cncn1)(Cn1cncn1)c1ccc(F)cc1F							Activity (Candida albicans [6]): Active
CC(C)c1cc(-c2n[nH]c(=O)n2-c2ccc(C(=O)NCCCCC(=O)NO)cc2)c(O)cc1O	8	4.6	> 64	4	0.188	4.6	
CC(C)c1cc(-c2n[nH]c(=O)n2-c2ccc(NC(=O)CCCCC(=O)NO)cc2)c(O)cc1O	16	0.024	> 64	16	0.5	0.024	
CC(C)c1cc(-c2n[nH]c(=O)n2-c2cccc(NC(=O)CCCCCCC(=O)NO)c2)c(O)cc1O	2	1.6	> 64	8	0.156	1.6	
CC(C)c1cc(-c2n[nH]c(=O)n2-c2cccc(C(=O)NCCCCC(=O)NO)c2)c(O)cc1O	64	4.6	> 64	16	1.25	4.6	
O=C(CCCCCCC(=O)Nc1ccccc1)NO [VORINOSTAT]							IC50 [7]: 3.6 µM; Activity [8]: Toxic; IC50 [5]: 1.85 µM
CC(C)c1cc(-c2n[nH]c(=O)n2-c2cccc(C(=O)NCCCC(=O)NO)c2)c(O)cc1O	64	4.6	> 64	64	2	4.6	
CC(C)c1cc(-c2n[nH]c(=O)n2-c2ccc3c(ccn3C)c2)c(O)cc1O [GANETESPIB]	1		> 64	0.5			Activity [8]: Toxic; IC50 [5]: < 0.015 µM; IC50 [9]: 0.66 µM
CC(C)c1cc(-c2n[nH]c(=O)n2-c2cccc(NC(=O)CCCCC(=O)NO)c2)c(O)cc1O	32	1.6	> 64	64	1.5	1.6	
CC(C)c1cc(-c2n[nH]c(=O)n2-c2cccc(NC(=O)CCCCCC(=O)NO)c2)c(O)cc1O	32	1.6	> 64	64	1.5	1.6	
CC(C)c1cc(-c2n[nH]c(=O)n2-c2ccc(NC(=O)CCCCCC(=O)NO)cc2)c(O)cc1O	8	0.024	> 64	8	0.25	0.024	
CC(C)c1cc(-c2n[nH]c(=O)n2-c2ccc(C(=O)NCCCC(=O)NO)cc2)c(O)cc1O	1	4.6	> 64	16	0.266	4.6	
CC(C)c1cc(-c2n[nH]c(=O)n2-c2ccc(NC(=O)CCCC(=O)NO)cc2)c(O)cc1O	1	0.024	> 64	4	0.078	0.024	
CC(C)c1cc(-c2n[nH]c(=O)n2-c2ccc(C(=O)NCCCCCC(=O)NO)cc2)c(O)cc1O	>64	4.6	> 64	>64	2	4.6	
CC(C)c1cc(-c2n[nH]c(=O)n2-c2ccc(C(=O)NCCCCCCC(=O)NO)cc2)c(O)cc1O	1	4.6	> 64	16	0.266	4.6	
CC(C)c1cc(-c2n[nH]c(=O)n2-c2cccc(C(=O)NCCCCCC(=O)NO)c2)c(O)cc1O	64	4.6	> 64	16	1.25	4.6	
CC(C)c1cc(-c2n[nH]c(=O)n2-c2ccc(NC(=O)CCCCCCC(=O)NO)cc2)c(O)cc1O	4	0.024	> 64	8	0.188	0.024	
CC(C)c1cc(-c2n[nH]c(=O)n2-c2cccc(C(=O)NCCCCCCC(=O)NO)c2)c(O)cc1O	1	4.6	> 64	8	0.141	4.6	inhibition (Candida albicans [10]): Active; inhibition (Candida albicans [11]): Active; inhibition (Candida albicans [12]): Active; inhibition (Candida albicans [13]): Active; inhibition (Candida albicans [14]): Active; IC50 [5]: > 6.13 µM
CC(C)c1cc(-c2n[nH]c(=O)n2-c2ccc(C(=O)NCCCCCCCC(=O)NO)cc2)c(O)cc1O	1	4.6	> 64	16	0.266	4.6	IC50 [7]: 0.91 µM; inhibition (Candida albicans [10]): Active; Activity (Candida albicans [15]): Active; IC50 (Heat shock protein HSP90): 19.52 µM; Activity (Candida albicans [16]): Active; IC50 (Histone deacetylase): 3 µM; Activity (Candida albicans [17]): Active; Activity (Candida albicans [18]): Active; Activity (Candida albicans [19]): Active; inhibition (Candida albicans [11]): Active; inhibition (Candida albicans [12]): Active; inhibition (Candida albicans [13]): Active; inhibition (Candida albicans [14]): Active; IC50 [5]: > 6.13 µM; Activity (Candida albicans [20]): Active; IC50 [9]: 0.83 µM
